Patent US20220127267A1, “THIENO[3,2-B] PYRROLE[3,2-D]PYRIDAZINONE DERIVATIVES AND THEIR USE AS PKM2 DERIVATIVES FOR THE TREATMENT OF CANCER, OBESITY AND DIABETES RELATED DISORDERS” (Agios Pharmaceuticals, Inc., priority 2019, published 2022)

Assays:
[1] = biological target: PKM2 WT (Homo sapiens, UniProt P14618); assay: PKM2 Assay, LDH-coupled, absorbance 340 nm; assay type: biochemical; conditions: wild type PKM2 enzyme activation
Experimental: (§1) PKM2 enzyme stock solution was diluted to prepare a 1.25× Reaction Mix (without ADP). 1 μL of test compound was first added to the wells followed by 40 μL of 1.25× Reaction Mix (without ADP) and incubated at room temperature (25° C.) for 60 min. The reaction was initiated with 10 μL ADP (0.4 mM final concentration), bringing the final Reaction Mix to 1x, and the reaction progress was measured as changes in absorbance at 340 nm wavelength at room temperature.
(§2) Test compound preparation: Test compounds were prepared at 50× final concentration in DMSO. 1 to 3 dilutions were made for 11 points (for example 50 μL of 5000 μM compound was added to 100 μL 100% DMSO to yield a 1667 μM, 50 μL of this added to 100 μL DMSO to yield 556 μM, and so forth). The compounds were added to the assay as a 1 to 50 dilution (1 μL in 50 μL) to yield a top concentration of 100 μM, decreasing 3-fold for 11 points.
Reaction Mix: PKM2 (5 ng/well, 0.1 μg/ml), ADP (0.4 mM), PEP (0.11 mM), NADH (180 μM), LDH (0.005 U/μL, Sigma #L3888), 1 mM DTT, 0.03% BSA in 1×
(§3) Reaction Buffer: 100 mM KCl, 50 mM Tris pH 7.5, 5 mM MgCl2.

[2] = biological target: PKR K410E (Homo sapiens, UniProt P30613, K410E); assay: PKR Mutant Assay (K410E), LDH-coupled, absorbance 340 nm; assay type: biochemical; conditions: mutant PKR K410E enzyme activation
Experimental: as §1, with “PKR (WT or mutant)” for “PKM2”, “ADP,” for “ADP (0.4 mM final concentration),”
as §2
(§4) Reaction Mix: PKR (1.25-1000 ng/well, 0.025-20 μg/ml depending on the PKR mutant), ADP (0.05-2.3 mM depending on the PKR mutant), PEP (0.031-2 mM depending on the PKR mutant), NADH (180 μM), LDH (0.005 U/μL, Sigma #L3888), 1 mM DTT, 0.03% BSA in 1× Reaction Buffer
as §3

[3] = biological target: PK R510Q (Homo sapiens, UniProt P30613, R510Q); assay: PKR Mutant Assay (R510Q), LDH-coupled, absorbance 340 nm; assay type: biochemical; conditions: mutant PKR R510Q enzyme activation
Experimental: as §1, with “PKR (WT or mutant)” for “PKM2”, “ADP,” for “ADP (0.4 mM final concentration),”
as §2, §4, §3

[4] = biological target: PKR WT (Homo sapiens, UniProt P30613); assay: PKR enzyme assay (WT), LDH-coupled, absorbance 340 nm; assay type: biochemical; conditions: wild type PKR enzyme activation
Experimental: as §1, with “PKR (WT or mutant)” for “PKM2”, “ADP,” for “ADP (0.4 mM final concentration),”
as §2, §4, §3

[5] = tested on: RBCs; assay: Cell Based ATP Assay in purified red blood cells (Cell-Titer-Glo); design: species or system human; conditions: wild type PKR, ATP levels in RBCs, overnight at 37° C.; for AC50: Homo sapiens, Erythrocyte
Experimental: Fresh blood drawn from healthy volunteers into K2EDTA tubes was collected. Whole blood was pelleted by spinning at 500 g for 10 minutes. The transfusion bag port was cut off Purecell leukocyte reduction neofilter (Fisher NC0267633) one (1) inch above filter. A 10 ml syringe barrel was attached to the remaining cut tubing attached to the neofilter. The plasma layer was removed from the pellet of the whole blood and the pellet was resuspended in 2× volume of phosphate buffered saline (PBS). 9 ml re-suspended blood cell pellet was transferred to a 10 ml syringe that was attached to the neofilter. The whole blood was allowed to gravity flow through filter until all fluid ran through upper tubing into a filter disc. The plunger was added to the syringe. The filter was inverted and air was plunged through the syringe filter system. A new 5 ml syringe was used to remove filtered RBCs from the bag by the syringe port. Purified RBCs were transferred to a 5 ml snap cap tube that had been incubated on ice. The 5 ml snap cap tube was spun at 500 g for 10 minutes at 15 C. Supernatant was aspirated and resuspended in AGAM (1×PBS, 1% glucose, 170 mg/L adenine, 5.25 g/L mannitol) at a density of 4×10^9 cells/mL.
For cell based ATP assays, the compound as described herein was prepared in 100% DMSO as a 10 mM stock. Serial dilutions (1:4) were performed in 96-well V-bottom storage plate and then added 1:100 to 96-well V-bottom plates containing AGAM. 10 μL/well of compound diluted in AGAM was added to black clear bottom assay plates. RBCs were diluted in AGAM media to a density of 1×10^7 cells/mL before added 90 μL/well to black clear bottom assay plates (final compound concentration at 0.1% DMSO concentration). Assay plates were sealed using aluminum foil seals and incubated overnight at 37° C. in a humidified chamber. ATP levels were read out using Cell-Titer-Glo (Promega).

Chain of PK R510Q (P30613 whole entry R510Q): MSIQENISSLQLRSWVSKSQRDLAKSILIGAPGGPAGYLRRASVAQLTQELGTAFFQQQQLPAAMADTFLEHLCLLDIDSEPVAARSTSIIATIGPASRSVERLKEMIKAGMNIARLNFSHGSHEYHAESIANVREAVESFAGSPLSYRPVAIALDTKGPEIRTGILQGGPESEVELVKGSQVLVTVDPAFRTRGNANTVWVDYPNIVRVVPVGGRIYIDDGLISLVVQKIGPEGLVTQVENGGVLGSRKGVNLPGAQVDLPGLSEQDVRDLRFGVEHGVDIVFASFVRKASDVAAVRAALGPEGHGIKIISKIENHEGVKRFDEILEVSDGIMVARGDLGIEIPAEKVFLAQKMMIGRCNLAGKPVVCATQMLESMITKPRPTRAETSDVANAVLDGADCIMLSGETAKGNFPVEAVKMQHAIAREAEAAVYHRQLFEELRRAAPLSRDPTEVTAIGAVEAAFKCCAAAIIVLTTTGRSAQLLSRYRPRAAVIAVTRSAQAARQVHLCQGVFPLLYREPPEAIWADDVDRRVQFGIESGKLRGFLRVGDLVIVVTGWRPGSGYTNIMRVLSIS
Chain of PKR K410E (P30613 whole entry K410E): as the sequence (P30613 whole entry R510Q) above, with K410E, Q510R counted along it
Chain of PKR WT (P30613 whole entry): as the sequence (P30613 whole entry R510Q) above, with Q510R counted along it
Chain of PKM2 WT (P14618 whole entry): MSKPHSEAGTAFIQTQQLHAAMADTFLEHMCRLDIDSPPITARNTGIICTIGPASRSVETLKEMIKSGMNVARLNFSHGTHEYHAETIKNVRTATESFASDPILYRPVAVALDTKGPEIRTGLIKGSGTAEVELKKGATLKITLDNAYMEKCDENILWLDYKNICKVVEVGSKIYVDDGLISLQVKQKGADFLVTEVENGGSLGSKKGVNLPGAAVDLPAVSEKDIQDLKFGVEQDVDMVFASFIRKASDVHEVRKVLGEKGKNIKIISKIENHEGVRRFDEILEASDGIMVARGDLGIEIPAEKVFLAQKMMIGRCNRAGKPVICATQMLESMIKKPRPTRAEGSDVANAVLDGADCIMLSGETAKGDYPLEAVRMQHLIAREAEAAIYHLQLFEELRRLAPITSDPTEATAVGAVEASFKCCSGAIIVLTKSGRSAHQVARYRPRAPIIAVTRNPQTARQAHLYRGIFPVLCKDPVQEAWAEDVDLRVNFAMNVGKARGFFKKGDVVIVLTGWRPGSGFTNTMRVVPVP

AC50 [1]	AC50 [2]	AC50 [3]	AC50 [4]	PKR K410E AC50 [2]	PK R510Q AC50 [3]	PKR WT AC50 [4]	Compound	AC50 [5]	Cell based ATP assay AC50 [5]
	> 800 nM	> 800 nM	> 800 nM				Cc1c2c(=O)n(Cc3ccn(C)n3)ncc2n2cc(CO)sc12 [Cpd 23]	> 1000 nM	
	< 300 nM	< 300 nM	< 300 nM				Cc1c2c(=O)n(Cc3ccn(C)n3)ncc2n2cc(Cc3cc[nH]n3)sc12 [Cpd 24]	≤ 1000 nM	
				No Fit	No Fit	No Fit	COc1cccc(Cn2ncc3c4c(cnn4C)n(C)c3c2=O)c1 [Cpd 27]		
	301 to 800 nM	< 300 nM	301 to 800 nM				COc1cccc(Cn2ncc3c4nn(Cc5ccccc5)cc4n(C)c3c2=O)c1 [Cpd 28]		
				Inhibition	No Fit	No Fit	COc1cccc(Cn2ncc3c4cccc(Br)c4n(C)c3c2=O)c1 [Cpd 33]		
	< 300 nM				No Fit	No Fit	COC(=O)c1ccc2c3cnn(Cc4cccc(OC)c4)c(=O)c3n(C)c2c1 [Cpd 40]		
	< 300 nM	< 300 nM	301 to 800 nM				COc1cccc(Cn2ncc3c4ccc(C#N)cc4n(C)c3c2=O)c1 [Cpd 47]		
	< 300 nM	< 300 nM	< 300 nM				Cn1c2ccc(S(=O)(=O)c3cc[nH]n3)cc2c2cnn(Cc3cccc(C(N)=O)c3)c(=O)c21 [Cpd 49]	≤ 1000 nM	
	> 800 nM	< 300 nM	301 to 800 nM				Cn1c2cc(S(=O)(=O)c3cc[nH]n3)ccc2c2cnn(Cc3cccc(C(N)=O)c3)c(=O)c21 [Cpd 50]	> 1000 nM	
	301 to 800 nM	< 300 nM	301 to 800 nM				Cn1c2cc(S(C)(=O)=O)ccc2c2cnn(Cc3cccc(C(N)=O)c3)c(=O)c21 [Cpd 53]	> 1000 nM	
	< 300 nM	< 300 nM	301 to 800 nM				Cn1c2cc(S(=O)(=O)c3ccccc3)ccc2c2cnn(Cc3cccc(C(N)=O)c3)c(=O)c21 [Cpd 54]	> 1000 nM	
	< 300 nM	< 300 nM	301 to 800 nM				Cn1cc(S(=O)(=O)c2ccc3c(c2)c2cnn(Cc4cccc(C(N)=O)c4)c(=O)c2n3C)cn1 [Cpd 55]	> 1000 nM	
	< 300 nM	< 300 nM	301 to 800 nM				Cn1cc(S(=O)(=O)c2ccc3c4cnn(Cc5cccc(C(N)=O)c5)c(=O)c4n(C)c3c2)cn1 [Cpd 56]	> 1000 nM	
	> 800 nM	< 300 nM	301 to 800 nM				Cn1c2ccc(S(=O)(=O)c3ccccc3)cc2c2cnn(Cc3cccc(C(N)=O)c3)c(=O)c21 [Cpd 57]	> 1000 nM	
	< 300 nM	< 300 nM	< 300 nM				Cn1ccc(Cn2ncc3c4ccc(Cc5cscn5)cc4n(C)c3c2=O)n1 [Cpd 58]	≤ 1000 nM	
	301 to 800 nM	< 300 nM	301 to 800 nM				COc1cccc(Cn2ncc3c4ccncc4n(C)c3c2=O)c1 [Cpd 64]		
	< 300 nM	< 300 nM	< 300 nM				Cn1ccc(Cn2ncc3c4cc(Cc5cscn5)ncc4n(C)c3c2=O)n1 [Cpd 67]	≤ 1000 nM	
	< 300 nM	< 300 nM	< 300 nM				COc1cccc(Cn2ncc3c(c(Br)n4cc(C)sc34)c2=O)c1 [Cpd 68]	> 1000 nM	

Further lines, the compound ahead of its results:

Compound	AC50 [1]	AC50 [2]	AC50 [3]	AC50 [4]	PKR K410E AC50 [2]	PK R510Q AC50 [3]	PKR WT AC50 [4]	AC50 [5]	Cell based ATP assay AC50 [5]
COc1cccc(CN2Cc3c(n(C)c4cc(C)sc34)C2=O)c1 [Cpd 1]	> 800 nM	> 800 nM	> 800 nM	> 800 nM					
Cc1cccc(Cn2ncc3c4sc(Cc5ncco5)cc4n(C)c3c2=O)c1 [Cpd 5]		< 300 nM	< 300 nM	< 300 nM				≤ 1000 nM	
Cn1c2cc(Cc3cccc4cn[nH]c34)sc2c2cnn(Cc3cscn3)c(=O)c21 [Cpd 6]		< 300 nM	< 300 nM	< 300 nM				≤ 1000 nM	
Cn1c2cc(Cc3cscn3)sc2c2cnn(Cc3ccccn3)c(=O)c21 [Cpd 7]		< 300 nM	< 300 nM	< 300 nM				≤ 1000 nM	
Cn1c2cc(Cc3cn[nH]c3)sc2c2cnn(Cc3cccc4[nH]ncc34)c(=O)c21 [Cpd 8]			< 300 nM	< 300 nM	No Fit			≤ 1000 nM	
COc1cccc(Cn2ncc3c(c(C)n4cc(C)sc34)c2=O)c1 [Cpd 9]		< 300 nM	< 300 nM	< 300 nM				> 1000 nM	
COc1cccc(Cn2ncc3c(c(C(F)(F)F)n4cc(C)sc34)c2=O)c1 [Cpd 10]				< 300 nM	No Fit	No Fit			No Fit
COc1cccc(Cn2ncc3c(c(C#N)n4cc(C)sc34)c2=O)c1 [Cpd 11]		< 300 nM	< 300 nM	< 300 nM					No Fit
COc1cccc(Cn2ncc3c(c(C(N)=O)n4cc(C)sc34)c2=O)c1 [Cpd 12]		< 300 nM	< 300 nM	< 300 nM				> 1000 nM	
COc1cccc(Cn2ncc3c(c(C#CCO)n4cc(C)sc34)c2=O)c1 [Cpd 13]		301 to 800 nM	301 to 800 nM	301 to 800 nM					No Fit
Cc1c2c(=O)n(Cc3ccn(C)n3)ncc2c2sc(CO)cn12 [Cpd 14]		< 300 nM	< 300 nM	< 300 nM				≤ 1000 nM	
Cc1c2c(=O)n(Cc3ccn(C)n3)ncc2c2sc(Cc3cc[nH]n3)cn12 [Cpd 15]		< 300 nM	< 300 nM	< 300 nM				≤ 1000 nM	
Cc1c2c(=O)n(Cc3ccccn3)ncc2c2sc(Cc3cscn3)cn12 [Cpd 16]		< 300 nM	< 300 nM	< 300 nM				≤ 1000 nM	
Cc1c2c(=O)n(Cc3cccc(N)n3)ncc2c2sc(Cc3cc[nH]n3)cn12 [Cpd 17]		< 300 nM	< 300 nM	< 300 nM				≤ 1000 nM	
Cc1c2c(=O)n(Cc3ccc4[nH]ncc4c3)ncc2c2sc(Cc3ccccn3)cn12 [Cpd 18]		< 300 nM	< 300 nM	< 300 nM				≤ 1000 nM	
Cc1c2c(=O)n(Cc3cccc(C#N)c3)ncc2c2sc(Cc3ncco3)cn12 [Cpd 19]		< 300 nM	> 800 nM	301 to 800 nM				> 1000 nM	
Cc1c2c(=O)n(Cc3cscn3)ncc2c2sc(Cc3cccc4c[nH]nc34)cn12 [Cpd 20]		< 300 nM	< 300 nM	< 300 nM				≤ 1000 nM	
Cc1cn2c(C)c3c(=O)n(Cc4ccn(C)n4)ncc3c2s1 [Cpd 21]		< 300 nM	< 300 nM	< 300 nM				≤ 1000 nM	
Cc1cn2c(s1)c(C)c1c(=O)n(Cc3cc[nH]n3)ncc12 [Cpd 22]		> 800 nM	> 800 nM	> 800 nM					No Fit
